Where a SMILES comes first, the peptide text is derived from it. Bridges are numbered along the chain shown (N, C = ends). [ ]: non-standard residue; d: D form. Aib = CC(C)(N)C(=O)O
Legend:
Format in all cases: cell-based
GIP receptor = target: T1, GIP receptor (Homo sapiens, UniProt P48546); assay: cAMP synthesis functional assay (firefly luciferase reporter in HEK293 cells), GIP receptor
T1 construct: expressed in transfected cells; host or cells: HEK293
T1 sequence (P48546 22-466): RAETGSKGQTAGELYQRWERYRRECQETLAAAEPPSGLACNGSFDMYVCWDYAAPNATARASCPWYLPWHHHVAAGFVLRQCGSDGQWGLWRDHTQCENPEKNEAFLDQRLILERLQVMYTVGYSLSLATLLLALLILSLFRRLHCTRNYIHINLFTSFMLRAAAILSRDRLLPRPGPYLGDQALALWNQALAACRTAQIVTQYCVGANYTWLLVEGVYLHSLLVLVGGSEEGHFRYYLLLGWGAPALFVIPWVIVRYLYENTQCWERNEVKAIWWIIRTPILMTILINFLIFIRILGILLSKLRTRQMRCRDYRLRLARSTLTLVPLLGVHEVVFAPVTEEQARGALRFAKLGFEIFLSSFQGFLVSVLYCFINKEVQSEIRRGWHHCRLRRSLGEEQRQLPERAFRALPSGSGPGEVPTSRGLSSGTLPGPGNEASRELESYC

GLP-1 receptor = target: T2, GLP-1 receptor (Homo sapiens, UniProt P43220); assay: cAMP synthesis functional assay (firefly luciferase reporter in HEK293 cells), GLP-1 receptor; conditions: for EC50: GLP-1 Receptor EC50, cAMP luciferase reporter assay as in Example 16
T2 construct: expressed in transfected cells; host or cells: HEK293
T2 sequence (P43220 24-463, species assumed): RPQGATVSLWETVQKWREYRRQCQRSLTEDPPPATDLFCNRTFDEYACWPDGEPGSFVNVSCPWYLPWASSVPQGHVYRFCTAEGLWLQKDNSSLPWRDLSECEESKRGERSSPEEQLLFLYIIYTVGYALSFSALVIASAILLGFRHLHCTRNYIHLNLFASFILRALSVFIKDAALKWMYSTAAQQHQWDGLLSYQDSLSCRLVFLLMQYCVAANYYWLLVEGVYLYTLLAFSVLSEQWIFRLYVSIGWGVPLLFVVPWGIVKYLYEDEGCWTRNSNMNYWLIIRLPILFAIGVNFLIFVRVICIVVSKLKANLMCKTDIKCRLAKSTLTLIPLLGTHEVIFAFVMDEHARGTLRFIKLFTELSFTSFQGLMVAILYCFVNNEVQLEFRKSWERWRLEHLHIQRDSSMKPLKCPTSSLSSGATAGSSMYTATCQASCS

[1] = system: glucagon receptor, GLP-1 receptor or GIP receptor; assay: Agonist profile across receptors assigned from the cAMP reporter assay data; conditions: assigned from the in vitro EC50 data of Tables 1-4
glucagon receptor = target: T3, glucagon receptor (Homo sapiens, UniProt P47871); assay: cAMP synthesis functional assay (firefly luciferase reporter in HEK293 cells), glucagon receptor; conditions: for EC50: Glucagon Receptor EC50, cAMP luciferase reporter assay as in Example 16
T3 construct: expressed in transfected cells; host or cells: HEK293
T3 sequence (P47871 26-477): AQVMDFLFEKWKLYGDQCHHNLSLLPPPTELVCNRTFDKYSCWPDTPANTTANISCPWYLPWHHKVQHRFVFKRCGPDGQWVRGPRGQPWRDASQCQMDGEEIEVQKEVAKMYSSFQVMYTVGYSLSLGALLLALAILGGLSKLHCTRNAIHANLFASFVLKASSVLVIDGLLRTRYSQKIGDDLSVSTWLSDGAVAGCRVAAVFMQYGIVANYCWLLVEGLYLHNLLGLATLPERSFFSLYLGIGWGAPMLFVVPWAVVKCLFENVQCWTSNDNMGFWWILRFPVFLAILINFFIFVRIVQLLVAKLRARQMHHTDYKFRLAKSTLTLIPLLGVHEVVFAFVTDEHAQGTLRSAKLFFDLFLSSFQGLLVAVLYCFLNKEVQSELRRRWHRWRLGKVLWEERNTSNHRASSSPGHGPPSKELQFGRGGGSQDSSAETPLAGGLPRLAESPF

[2] = Table 1, relative to the native hormone of the indicated receptor
[3] = relative to the standard (Std.) EC50 of the same run

SMILES: CC[C@H](C)[C@H](NC(=O)[C@H](CO)NC(=O)[C@H](Cc1ccc(O)cc1)NC(=O)[C@H](CC(=O)O)NC(=O)[C@H](CO)NC(=O)[C@@H](NC(=O)[C@H](Cc1ccccc1)NC(=O)[C@@H](NC(=O)CNC(=O)[C@H](CCC(N)=O)NC(=O)C(C)(C)NC(=O)[C@@H](N)Cc1ccc(O)cc1)[C@@H](C)O)[C@@H](C)O)C(=O)N[C@@H](Cc1ccc(O)cc1)C(=O)N[C@@H](CC(C)C)C(=O)N[C@@H](CC(=O)O)C(=O)N[C@H]1CCC(=O)NCCCC[C@@H](C(=O)N[C@@H](CCC(=O)O)C(=O)N[C@@H](Cc2ccccc2)C(=O)N[C@H](C(=O)N[C@@H](CS)C(=O)N[C@@H](Cc2c[nH]c3ccccc23)C(=O)N[C@@H](CC(C)C)C(=O)N[C@@H](CC(C)C)C(=O)N[C@@H](C)C(=O)NCC(N)=O)C(C)C)NC(=O)[C@H](C)NC(=O)[C@H](C)NC(=O)[C@H](CCC(N)=O)NC1=O [mt-169] (H-Y[Aib]QGTFTSDYSIYLDEQAAKEFVCWLLAG-NH2; lactam 16-20; N-terminus assumed)
- GIP Receptor relative activity (GIP receptor; [2]): 14.79%
- GLP-1 Receptor relative activity (GLP-1 receptor; [2]): 54.39%
- receptor activity profile (glucagon / GLP-1 / GIP agonism) [1]: exemplary GLP-1/GIP/glucagon triagonist peptides
- Glucagon Receptor relative activity (glucagon receptor; [2]): 51.26%

SMILES: CCCCCCCCCCCCCCCCCC(=O)NCCCC[C@H](NC(=O)[C@H](CO)NC(=O)[C@@H]1CCCN1C(=O)[C@@H]1CCCN1C(=O)[C@@H]1CCCN1C(=O)[C@H](C)NC(=O)CNC(=O)[C@H](CO)NC(=O)[C@H](CO)NC(=O)[C@@H]1CCCN1C(=O)CNC(=O)CNC(=O)[C@H](C)NC(=O)[C@H](CC(C)C)NC(=O)[C@H](CC(C)C)NC(=O)[C@H](Cc1c[nH]c2ccccc12)NC(=O)[C@H](CS)NC(=O)[C@@H](NC(=O)[C@H](Cc1ccccc1)NC(=O)[C@H](CCC(=O)O)NC(=O)C(C)(C)NC(=O)[C@H](C)NC(=O)[C@H](C)NC(=O)[C@H](CCC(N)=O)NC(=O)[C@H](CCCCN)NC(=O)[C@H](CC(=O)O)NC(=O)[C@H](CC(C)C)NC(=O)[C@H](Cc1ccc(O)cc1)NC(=O)[C@@H](NC(=O)[C@H](CO)NC(=O)[C@H](Cc1ccc(O)cc1)NC(=O)[C@H](CC(=O)O)NC(=O)[C@H](CO)NC(=O)[C@@H](NC(=O)[C@H](Cc1ccccc1)NC(=O)[C@@H](NC(=O)CNC(=O)[C@H](CCC(=O)O)NC(=O)C(C)(C)NC(=O)[C@@H](N)Cc1ccc(O)cc1)[C@@H](C)O)[C@@H](C)O)[C@@H](C)CC)C(C)C)C(N)=O [mt-307]
- GIP Receptor relative activity (GIP receptor; [3]): 128.35%
- GLP-1 Receptor relative activity (GLP-1 receptor; [3]): 113.29%
- receptor activity profile (glucagon / GLP-1 / GIP agonism) [1]: exhibited activity at the GIP, GLP-1, and glucagon receptors
- EC50 (glucagon receptor): 0.288 nM
- Glucagon Receptor relative activity (glucagon receptor; [3]): 16.61%

SMILES: CC[C@H](C)[C@H](NC(=O)[C@H](CO)NC(=O)[C@H](Cc1ccc(O)cc1)NC(=O)[C@H](CC(=O)O)NC(=O)[C@H](CO)NC(=O)[C@@H](NC(=O)[C@H](Cc1ccccc1)NC(=O)[C@@H](NC(=O)CNC(=O)[C@H](CCC(N)=O)NC(=O)C(C)(C)NC(=O)[C@@H](N)Cc1ccc(O)cc1)[C@@H](C)O)[C@@H](C)O)C(=O)N[C@@H](Cc1ccc(O)cc1)C(=O)N[C@@H](CC(C)C)C(=O)N[C@@H](CC(=O)O)C(=O)N[C@@H](CCC(=O)O)C(=O)N[C@@H](CCC(=O)O)C(=O)N[C@@H](C)C(=O)N[C@H](C(=O)N[C@@H](CCCNC(=N)N)C(=O)N[C@@H](CC(C)C)C(=O)N[C@@H](Cc1ccccc1)C(=O)N[C@H](C(=O)N[C@@H](CC(N)=O)C(=O)N[C@@H](Cc1c[nH]c2ccccc12)C(=O)N[C@@H](CC(C)C)C(=O)N[C@@H](CC(C)C)C(=O)N[C@@H](C)C(=O)NCC(=O)NCC(=O)N1CCC[C@H]1C(=O)N[C@@H](CO)C(=O)N[C@@H](CO)C(=O)NCC(=O)N[C@@H](C)C(=O)N1CCC[C@H]1C(=O)N1CCC[C@H]1C(=O)N1CCC[C@H]1C(=O)N[C@@H](CO)C(N)=O)C(C)C)C(C)C [mt-201] (H-Y[Aib]QGTFTSDYSIYLDEEAVRLFVNWLLAGGPSSGAPPPS-NH2; N-terminus assumed)
- GIP Receptor relative activity (GIP receptor; [2]): 44.44%
- GLP-1 Receptor relative activity (GLP-1 receptor; [2]): 191.67%
- receptor activity profile (glucagon / GLP-1 / GIP agonism) [1]: exemplary GLP-1/GIP co-agonist peptides
- Glucagon Receptor relative activity (glucagon receptor; [2]): 0.24%

SMILES: CC[C@H](C)[C@@H]1NC(=O)[C@@H](NC(=O)[C@H](CC(=O)O)NC(=O)[C@H](CC(C)C)NC(=O)[C@H](Cc2ccc(O)cc2)NC(=O)[C@H](CCCCN)NC(=O)[C@H](CO)NC(=O)[C@H](Cc2ccc(O)cc2)NC(=O)[C@H](CC(=O)O)NC(=O)[C@H](CO)NC(=O)[C@@H](NC(=O)[C@H](Cc2ccccc2)NC(=O)[C@@H](NC(=O)CNC(=O)[C@H](CCC(N)=O)NC(=O)[C@H](CO)NC(=O)[C@@H](N)Cc2ccc(O)cc2)[C@@H](C)O)[C@@H](C)O)CCC(=O)NCCCC[C@@H](C(=O)N[C@@H](CC(=O)O)C(=O)N[C@@H](Cc2ccccc2)C(=O)N[C@H](C(=O)N[C@@H](CC(N)=O)C(=O)N[C@@H](Cc2c[nH]c3ccccc23)C(=O)N[C@@H](CC(C)C)C(=O)N[C@@H](CC(C)C)C(=O)N[C@@H](C)C(=O)NCC(=O)NCC(=O)N2CCC[C@H]2C(=O)N[C@@H](CO)C(=O)N[C@@H](CO)C(=O)NCC(=O)N[C@@H](C)C(=O)N2CCC[C@H]2C(=O)N2CCC[C@H]2C(=O)N2CCC[C@H]2C(=O)N[C@@H](CO)C(N)=O)C(C)C)NC(=O)[C@H](CCC(N)=O)NC(=O)[C@H](Cc2c[nH]cn2)NC1=O [mt-116] (H-YSQGTFTSDYSKYLDEIHQKDFVNWLLAGGPSSGAPPPS-NH2; lactam 16-20; N-terminus assumed)
- GIP Receptor relative activity (GIP receptor; [2]): 7.62%
- GLP-1 Receptor relative activity (GLP-1 receptor; [2]): 1.07%
- receptor activity profile (glucagon / GLP-1 / GIP agonism) [1]: exemplary GIP/glucagon co-agonist peptides
- Glucagon Receptor relative activity (glucagon receptor; [2]): 18.68%

SMILES: CCCCCCCCCCCCCCCC(=O)NCCCC[C@H](NC(=O)[C@H](CO)NC(=O)[C@@H]1CCCN1C(=O)[C@@H]1CCCN1C(=O)[C@@H]1CCCN1C(=O)[C@H](C)NC(=O)CNC(=O)[C@H](CO)NC(=O)[C@H](CO)NC(=O)[C@@H]1CCCN1C(=O)CNC(=O)CNC(=O)[C@H](C)NC(=O)[C@H](CC(C)C)NC(=O)[C@H](CC(C)C)NC(=O)[C@H](Cc1c[nH]c2ccccc12)NC(=O)[C@H](CS)NC(=O)[C@@H](NC(=O)[C@H](Cc1ccccc1)NC(=O)[C@H](CCC(=O)O)NC(=O)C(C)(C)NC(=O)[C@H](C)NC(=O)[C@H](C)NC(=O)[C@H](CCC(N)=O)NC(=O)[C@H](CCCCN)NC(=O)[C@H](CC(=O)O)NC(=O)[C@H](CC(C)C)NC(=O)[C@H](Cc1ccc(O)cc1)NC(=O)[C@@H](NC(=O)[C@H](CO)NC(=O)[C@H](Cc1ccc(O)cc1)NC(=O)[C@H](CC(=O)O)NC(=O)[C@H](CO)NC(=O)[C@@H](NC(=O)[C@H](Cc1ccccc1)NC(=O)[C@@H](NC(=O)CNC(=O)[C@H](CCC(=O)O)NC(=O)C(C)(C)NC(=O)[C@@H](N)Cc1ccc(O)cc1)[C@@H](C)O)[C@@H](C)O)[C@@H](C)CC)C(C)C)C(N)=O [mt-296]
- GIP Receptor relative activity (GIP receptor; [3]): 211.69%
- EC50 (GLP-1 receptor): 0.0124 nM
- GLP-1 Receptor relative activity (GLP-1 receptor; [3]): 130.65%
- receptor activity profile (glucagon / GLP-1 / GIP agonism) [1]: exhibited activity at the GIP, GLP-1, and glucagon receptors
- EC50 (glucagon receptor): 0.421 nM
- Glucagon Receptor relative activity (glucagon receptor; [3]): 11.34%

SMILES: CCCCCCCCCCCCCCCC(=O)NCCCC[C@H](NC(=O)[C@H](CO)NC(=O)[C@@H]1CCCN1C(=O)[C@@H]1CCCN1C(=O)[C@@H]1CCCN1C(=O)[C@H](C)NC(=O)CNC(=O)[C@H](CO)NC(=O)[C@H](CO)NC(=O)[C@@H]1CCCN1C(=O)CNC(=O)CNC(=O)[C@H](C)NC(=O)[C@H](CC(C)C)NC(=O)[C@H](CC(C)C)NC(=O)[C@H](Cc1c[nH]c2ccccc12)NC(=O)[C@H](CS)NC(=O)[C@@H](NC(=O)[C@H](Cc1ccccc1)NC(=O)[C@H](CCC(=O)O)NC(=O)C(C)(C)NC(=O)[C@H](C)NC(=O)[C@H](C)NC(=O)[C@H](CCC(N)=O)NC(=O)[C@H](CCCCN)NC(=O)[C@H](CC(=O)O)NC(=O)[C@H](CC(C)C)NC(=O)[C@H](Cc1ccc(O)cc1)NC(=O)[C@@H](NC(=O)[C@H](CO)NC(=O)[C@H](Cc1ccc(O)cc1)NC(=O)[C@H](CC(=O)O)NC(=O)[C@H](CO)NC(=O)[C@@H](NC(=O)[C@H](Cc1ccccc1)NC(=O)[C@@H](NC(=O)CNC(=O)[C@H](CCC(N)=O)NC(=O)C(C)(C)NC(=O)[C@@H](N)Cc1ccc(O)cc1)[C@@H](C)O)[C@@H](C)O)[C@@H](C)CC)C(C)C)C(N)=O [mt-287]
- EC50 (GIP receptor; GIP Receptor EC50, cAMP luciferase reporter assay as in Example 16): 0.0093 nM
- GIP Receptor relative activity (GIP receptor; [3]): 117.20%
- EC50 (GLP-1 receptor): 0.0124 nM
- GLP-1 Receptor relative activity (GLP-1 receptor; [3]): 94.35%
- receptor activity profile (glucagon / GLP-1 / GIP agonism) [1]: exhibited activity at the GIP, GLP-1, and glucagon receptors
- EC50 (glucagon receptor): 0.0187 nM
- Glucagon Receptor relative activity (glucagon receptor; [3]): 277.54%

Reference: patent publication US9062124B2, “GIP-based mixed agonists for treatment of metabolic disorders and obesity” (priority 2008, dated 2015)
